# Source: patent US20220289732A1, “HETEROCYCLIC WDR5 INHIBITORS AS ANTI-CANCER COMPOUNDS” (NOVARTIS AG, priority 2019, published 2022)
# What was measured:
# [1] = biological target: WDR5 (Homo sapiens, UniProt P61964); test: WDR5 HTRF binding assay; conditions: read-out: (a) WDR5 HTRF Pep Val v.1[Inhibitor/IC50]Qualified AC50
# Method: The compounds were serially diluted 3-fold in DMSO to obtain a total of twelve concentrations. Then the test compounds at each concentration (90 nL of each) were transferred by Mosquito in the white Proxiplate plus 384-well microplate (Perkin Elmer). The assay mixture (typical 9 μL) containing 6 nM WDR5 and 20 nM Biotin-MLL1 WIN peptide (3762-3773) in the assay buffer (25 mM Hepes, pH7.5, 0.05% Tween 20, 2 mM DTT, 100 mM NaCl, 0.1% BSA) were added to the wells. For counter assay, a 9 μL solution of 15 nM Biotin-PEG-His peptide was added into the wells. After 20 min incubation at rt, a 3 μL detection solution containing 14 μg/ml Phycolink Streptavidin Allophycocyanin (Prozyme), 2 nM Anti-His-Eu (PerkinElmer) in assay buffer was then added. After 1 hr incubation, the plate was read in the EnVision reader (PerkinElmer) using the HTRF protocol (The protocol set-up: Lance/Delfia dual enhancer mirror, excitation at 320 UV2 (TRF), emission at APC665, 2nd emission at EuropiμM 615). HTRF signals were normalized based on the reading coming from the positive (maximum signal control) and negative controls (minimum signal control) to give percentage of activities left. The data were then fit to a dose response equation using the program Helios (Novartis) to get the IC50 values. Helios is a Novartis in-house assay data analysis software using the methods described by Normolle, D. P., Statistics in Medicine, 12:2025-2042 (1993); Formenko, I. et al., Computer Methods and programs in Biomedicine, 82, 31-37 (2006); Sebaugh, J. L., Pharmaceutical Statistics, 10:128-134 (2011); Kelly, C. et al., Biometrics, 46(4):1071-1085 (1990); and Kahm, M, et al., Journal of Statistical Software, 33(7):(2010) (grofit: Fitting Biological Growth Curves with R, pages 1-21, available at http://www.jstatsoft.org/).
# [2] = biological target: wild type MLL1 four-member complex (MLL1-4C) (Homo sapiens, UniProt P61964); test: MLL1 LC-MS assay (SAH production); assay type: biochemical; conditions: read-out: (b) MLL LCMS Peptide Val.v.1 Qualified AC50
# Method: The compounds of the present disclosure were serially and separately diluted 3-fold in DMSO to obtain a total of eight or twelve concentrations. Then the test compounds at each concentration (120 nL of each) were transferred by Mosquito into white Proxiplate plus 384-well microplate (PerkinElmer). Solutions (6 μL) of 60 nM wild type MLL1 four-member complex (MLL1-4C) and 5 μM SAM in the reaction buffer (20 mM Tris-HCl, pH8.0, 0.01% Tween 20, 1 mM DTT, 10 mM MgCl2, 0.01% BSA) were added to the wells that were then incubated with the test compound for 20 min. A 6 μL solution of 20 μM of the peptide substrate H3K4me0 (histone H3[1-21]-Biotin) in the reaction buffer was added to initiate each reaction. The final components in the reaction solution include 30 nM MLL1-4C, 2.5 μM SAM, and 10 μM H3K4me0 with varying concentration of the compounds. A positive control consisted of 30 nM MLL1-4C, 2.5 μM SAM, and 10 μM substrate in the absence of the test compound, and a negative control consisted of 2.5 μM SAM, and 10 μM substrate only. Each reaction was incubated at rt for 120 min, then stopped by addition of 3 μL per of quench solution (2.5% TFA with 320 nM d4-SAH). The reaction mixture was centrifuged (Eppendorf centrifuge 5810, Rotor A-4-62) for 2 min at 2000 rmp. The SAH production from the enzymatic assays were monitored by LC-MS/MS on an API 4000 triple quadrupole mass spec with Turbolon Spray (Applied Biosystem) coupled with Prominenece UFLC (Shimazu). The level of SAH production were then normalized based on the values coming from the positive and negative controls to give percent enzyme activities. The data were then fit to a dose response equation using the program Helios (Novartis) to get the IC50 values of the test compound. Helios is a Novartis in-house assay data analysis software using the methods described by Normolle, D. P., Statistics in Medicine, 12:2025-2042 (1993); Formenko, I. et al., Computer Methods and programs in Biomedicine, 82, 31-37 (2006); Sebaugh, J. L., Pharmaceutical Statistics, 10:128-134 (2011); Kelly, C. et al., Biometrics, 46(4):1071-1085 (1990); and Kahm, M, et al., Journal of Statistical Software, 33(7):(2010) (grofit: Fitting Biological Growth Curves with R, pages 1-21, available at http://www.jstatsoft.org/).
# [3] = test system: MV4-11 cells; test: MV4-11 6-day cell growth CTG (CellTiter-Glo) assay; assay type: cell-based; conditions: Homo sapiens, MV4-11, 144 h, 6 days, read-out: (c) MLL/WDR5 cell proliferation assay//MLL/WDR5 proliferation MV4:11 Qualified AC50
# Method: MV4-11 6-Day Cell Growth CTG (CellTiter-Glo) Assay
# Acute myeloid leukemia cell MV4-11 (ATCC® CRL-9591™) was cultured with RPMI 1640 medium (Thermo Fisher Scientific, cat #11875) supplemented with 10% FBS (Thermo Fisher Scientific, cat #10099141) in humidified incubator at 37° C., 5% CO2. To assess the effect of WDR5 inhibitor on cell growth, the compound of the present invention was dissolved in DMSO and serially diluted at 1:3 for 12 points starting from 10 mM then 200 nL for the replicate of each dose per well was dispensed to Viewplate-384 Black (Perkin Elmer). Exponentially growing MV4-11 cells were seeded at the density of 300 cells per well in 40 μL to the plate, so the final compound working concentration starts from 50 μM. After 6 days, 40 μL CellTiter-Glo (Promega, cat #G7573) was added into the cell culture well and luminescence was read with Envision (Perkin Elmer) to determine the viable cells. The percentage inhibition was calculated against the samples treated with DMSO only and the data were used for dose response curve fitting in GraphPad Prism to get the IC50 of representative compound of present invention, which reflects the inhibition of WDR5 activity in the proliferation of MV4;11.
IC50 [1],AC50 [2],SMILES,AC50 [3]
< 10 nM,10 to 1000 nM,"CCOc1cc([C@H](C)N2CCc3c(cc(CCN(C)CCO)cc3-c3cc(F)cnc3C(F)(F)F)C2=O)ncc1C#N [Example 228, (S)-4-ethoxy-6-(1-(5-(5-fluoro-2-(trifluoromethyl)pyridin-3-yl)-7-(2-((2-hydroxyethyl)(methyl)amino)ethyl)-1-oxo-3,4-dihydroisoquinolin-2(1H)-yl)ethyl)nicotinonitrile]",10 to 1000 nM
< 10 nM,10 to 1000 nM,CCOc1cc([C@H](C)N2CCc3c(cc(CCN4C[C@@H](O)[C@H]4C)cc3-c3cc(C)ncc3C)C2=O)ncc1C#N [Example 221],10 to 1000 nM
< 10 nM,10 to 1000 nM,CCOc1cc([C@H](C)N2CCc3c(cc(Cn4ccnc4C)cc3-c3cn(C)c(=O)cc3C)C2=O)ncc1F [Example 281],10 to 1000 nM
< 10 nM,10 to 1000 nM,CCOc1cc([C@H](C)N2CCc3c(cc(Cn4ccnc4C)cc3-c3cn(C)c(=O)cc3C)C2=O)ncc1C#N [Example 275],10 to 1000 nM
10 to 1000 nM,10 to 1000 nM,"CCOc1cc(C(C)N2CCc3c(cc(CCN(C)CC)cc3-c3cc4[nH]cnc4nc3C)C2=O)ncc1C#N (stereo not drawn) [Example 206, 4-ethoxy-6-(1-(7-(2-(ethyl(methyl)amino)ethyl)-5-(5-methyl-1H-imidazo[4,5-b]pyridin-6-yl)-1-oxo-3,4-dihydroisoquinolin-2(1H)-yl)ethyl)nicotinonitrile]",10 to 1000 nM
10 to 1000 nM,10 to 1000 nM,COc1cc(CN2CCc3c(cc(CCN(C)C)cc3-c3cn(C)nc3C(F)(F)F)C2=O)ccc1F [Example 255],1000 to 25000 nM
< 10 nM,10 to 1000 nM,"CCOc1cc([C@H](C)N2CCc3c(cc(CCN(C)CC)cc3-c3ccc(N)nc3Cl)C2=O)ncc1C#N [Example 178, (S)-6-(1-(5-(6-amino-2-chloropyridin-3-yl)-7-(2-(ethyl(methyl)amino)ethyl)-1-oxo-3,4-dihydroisoquinolin-2(1H)-yl)ethyl)-4-ethoxynicotinonitrile]",10 to 1000 nM
10 to 1000 nM,10 to 1000 nM,"CNc1nccn1Cc1cc(CN2CC(F)C2)c2c(c1)C(=O)N(Cc1cc(OC)c(F)cn1)CC2 [Example 30, 2-((5-fluoro-4-methoxypyridin-2-yl)methyl)-5-((3-fluoroazetidin-1-yl)methyl)-7-((2-(methylamino)-1H-imidazol-1-yl)methyl)-3,4-dihydroisoquinolin-1(2H)-one]",10 to 1000 nM
10 to 1000 nM,10 to 1000 nM,"CNc1nccn1Cc1cc2c(c(-c3c[nH]nc3C)c1)CCN(Cc1ccc(F)c(OC)c1)C2=O [Example 55, 2-(4-fluoro-3-methoxybenzyl)-5-(3-methyl-1H-pyrazol-4-yl)-7-((2-(methylamino)-1H-imidazol-1-yl)methyl)-3,4-dihydroisoquinolin-1(2H)-one]",10 to 1000 nM
< 10 nM,10 to 1000 nM,"CCOc1cc([C@H](C)N2CCc3c(cc(CCN(C)CC)cc3-c3cc(C(C)(C)O)ncc3C)C2=O)ncc1C#N [Example 184, (S)-4-ethoxy-6-(1-(7-(2-(ethyl(methyl)amino)ethyl)-5-(2-(2-hydroxypropan-2-yl)-5-methylpyridin-4-yl)-1-oxo-3,4-dihydroisoquinolin-2(1H)-yl)ethyl)nicotinonitrile]",10 to 1000 nM
< 10 nM,10 to 1000 nM,CCOc1cc(C(C)N2CCc3c(cc(CCN(C)C4COC4)cc3-c3ccc(F)nc3C)C2=O)ncc1C#N (stereo not drawn) [Example 231],10 to 1000 nM
< 10 nM,10 to 1000 nM,"CCOc1cc([C@H](C)N2CCc3c(cc(Cn4ccnc4C)cc3-c3cn(C)nc3C)C2=O)ncc1C(N)=O (single isomer, unassigned) [Example 268]",10 to 1000 nM
10 to 1000 nM,10 to 1000 nM,"CCOc1cc([C@H](C)N2CCc3c(cc(CCN(C)CC)cc3-c3cc(N)ncc3C(F)(F)F)C2=O)ncc1C#N [Example 202, (S)-6-(1-(5-(2-amino-5-(trifluoromethyl)pyridin-4-yl)-7-(2-(ethyl(methyl)amino)ethyl)-1-oxo-3,4-dihydroisoquinolin-2(1H)-yl)ethyl)-4-ethoxynicotinonitrile]",10 to 1000 nM
< 10 nM,10 to 1000 nM,CCOc1cc([C@H](C)N2CCc3c(cc(CCN4C[C@@H](O)C[C@H]4C)cc3-c3ccc(F)nc3C)C2=O)ncc1C#N [Example 226],10 to 1000 nM
< 10 nM,10 to 1000 nM,"CCOc1cc([C@H](C)N2CCc3c(cc(CCN(C)CC)cc3-c3cc(C)ncc3C)C2=O)ncc1C#N [Example 163, (S)-6-(1-(5-(2,5-dimethylpyridin-4-yl)-7-(2-(ethyl(methyl)amino)ethyl)-1-oxo-3,4-dihydroisoquinolin-2(1H)-yl)ethyl)-4-ethoxynicotinonitrile]",10 to 1000 nM
< 10 nM,10 to 1000 nM,"CCOc1cc(CN2CCc3c(cc(CCN(C)CC)cc3-c3ccc(F)nc3C)C2=O)ncc1F [Example 132, 2-((4-ethoxy-5-fluoropyridin-2-yl)methyl)-7-(2-(ethyl(methyl)amino)ethyl)-5-(6-fluoro-2-methylpyridin-3-yl)-3,4-dihydroisoquinolin-1(2H)-one]",10 to 1000 nM
10 to 1000 nM,10 to 1000 nM,"CCOc1cc([C@H](C)N2CCc3c(CN(C)C)cc(Cn4ccnc4NC)cc3C2=O)cnc1C#N [Example 32, (S)-5-(1-(5-((dimethylamino)methyl)-7-((2-(methylamino)-1H-imidazol-1-yl)methyl)-1-oxo-3,4-dihydroisoquinolin-2(1H)-yl)ethyl)-3-ethoxypicolinonitrile]",10 to 1000 nM
